Test results taken from publication PMC13489962, “Small-molecule modulation of β-arrestins” (Nature, 2026).

Tests used:
βARR1 K138A = target: T1, βARR1 K138A (Rattus norvegicus, UniProt P29066, K138A); test: ITC binding to βARR1 mutant K138A; conditions: 25 °C
T1 construct: βARR1 or βARR2 construct, with their C terminus truncated (at amino acid 393 or 394, respectively); GST (pGEX4T1) (N, cleaved yes); made in house; host or cells: E. coli BL21 (DE3) pLysS
Protocol: (§1) The expression and purification of β-arrestins have been described previously[44],[62]–[64]. In brief, E. coli BL21 (DE3) pLysS cells (New England Biolabs: C2527I) carrying pGEX4T1-Rattus norvegicus βARR1 or βARR2 construct, with their C terminus truncated (at amino acid 393 or 394, respectively), were cultured in Terrific Broth (Teknova) medium at 37 °C. After OD600 reached 0.6–0.8, the cells were induced with 0.1 mM isopropyl-β-D-thiogalactopyranoside (IPTG) at 18 °C overnight. Bacteria were collected by centrifugation (4,000 rpm), and cell pellets were resuspended in lysis buffer (20 mM HEPES, pH 8, 150 mM NaCl, 10% glycerol, 1 mM EDTA, 0.2 mM dithiothreitol (DTT), 1 mM phenylmethylsulfonyl fluoride, and 1 mM benzamidine) at 4 °C for 1 h. […] Eluted fractions were analysed by SDS–PAGE, pooled, concentrated using 30 kDa MWCO Amicon Ultra-15 Centrifugal Filter devices, flash-frozen in liquid nitrogen, and stored in aliquots at −80 °C. […] Protein concentrations for each protein were determined by ultraviolet absorption at 280 nm and extinction coefficients estimated using the ExPASy ProtParam tool[67].
(§2) ITC measurements were performed on a MicroCal iTC200 system at 25 °C. […] Protein concentrations were determined by spectrophotometry at 280 nm, using extinction coefficients calculated from each protein sequence via the ProtParam program. […]

βARR1 P133A = target: T2, βARR1 P133A (Rattus norvegicus, UniProt P29066, P133A); test: ITC binding to βARR1 mutant P133A; conditions: 25 °C
T2 construct: βARR1 or βARR2 construct, with their C terminus truncated (at amino acid 393 or 394, respectively); GST (pGEX4T1) (N, cleaved yes); made in house; host or cells: E. coli BL21 (DE3) pLysS
Protocol: as §1, §2

βARR1 R285A = target: T3, βARR1 R285A (Rattus norvegicus, UniProt P29066, R285A); test: ITC binding to βARR1 mutant R285A
T3 construct: βARR1 or βARR2 construct, with their C terminus truncated (at amino acid 393 or 394, respectively); GST (pGEX4T1) (N, cleaved yes); made in house; host or cells: E. coli BL21 (DE3) pLysS
Protocol: as §1, §2

βARR1 E134A = target: T4, βARR1 E134A (Rattus norvegicus, UniProt P29066, E134A); test: ITC binding to βARR1 mutant E134A; conditions: 25 °C
T4 construct: βARR1 or βARR2 construct, with their C terminus truncated (at amino acid 393 or 394, respectively); GST (pGEX4T1) (N, cleaved yes); made in house; host or cells: E. coli BL21 (DE3) pLysS
Protocol: as §1, §2

[1] = system: βARR2 conformation (AT1R); test: Intramolecular FlAsH-BRET βARR2 conformational sensors; assay type: cell-based, human; conditions: 50 μM, 15 min; AngII 10 μM
Protocol: Intramolecular FlAsH-BRET assays[72] were performed in HEK293 βARR1/2-knockout cells transiently transfected using FuGENE4K with 2 μg total DNA per 15 cm dish. Cells were transfected with 1.5 μg of pcDNA3.1 encoding human AT1R and 0.4 μg of a plasmid encoding the indicated RLuc–β-arrestin2–FlAsH biosensors. Twenty-four hours after transfection, cells were replated into poly-D-lysine-coated 96-well white, clear-bottom plates at 100,000 cells per well in MEM supplemented with 10% FBS. Forty-eight hours after transfection, cells were labelled with FlAsH-EDT2 (FlAsH II In-Cell Tetracysteine Detection Kit, Thermo Fisher) at a final concentration of 2.5 μM for 30 min at room temperature. Following labelling, cells were washed twice with BAL wash buffer (250 μM 2,3-dimercapto-1-propanol in HBSS), then equilibrated in HBSS supplemented with 20 mM HEPES (pH 7.4). Modulators were applied at 50 μM for 15 min, followed by addition of Prolume Purple substrate (Nanolight Technologies). Cells were then stimulated with 10 μM angiotensin II. BRET signals were recorded using a CLARIOstar Plus plate reader in kinetic mode (480 nm donor, 530 nm acceptor) for 30 min, and peak values were used for quantification. ΔNet BRET was calculated by subtracting baseline values from each condition, including agonist alone, modulator alone, or agonist plus modulator.

βARR1 C251A = target: T5, βARR1 C251A (Rattus norvegicus, UniProt P29066, C251A); test: ITC binding to βARR1 mutant C251A
T5 construct: βARR1 or βARR2 construct, with their C terminus truncated (at amino acid 393 or 394, respectively); GST (pGEX4T1) (N, cleaved yes); made in house; host or cells: E. coli BL21 (DE3) pLysS
Protocol: as §1, §2

T5 sequence (P29066 1-393 C251A): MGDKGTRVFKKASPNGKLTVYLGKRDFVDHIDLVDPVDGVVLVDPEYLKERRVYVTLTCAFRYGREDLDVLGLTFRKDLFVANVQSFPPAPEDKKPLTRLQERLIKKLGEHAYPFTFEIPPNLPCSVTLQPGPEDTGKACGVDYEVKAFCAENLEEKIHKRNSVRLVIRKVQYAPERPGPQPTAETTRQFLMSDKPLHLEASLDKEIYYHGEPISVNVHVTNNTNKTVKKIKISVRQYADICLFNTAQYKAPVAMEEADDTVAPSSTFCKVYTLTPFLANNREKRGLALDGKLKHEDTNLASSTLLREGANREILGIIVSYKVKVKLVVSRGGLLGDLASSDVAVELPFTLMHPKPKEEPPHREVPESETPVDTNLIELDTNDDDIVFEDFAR
T4 sequence (P29066 1-393 E134A): as the sequence (P29066 1-393 C251A) above, with E134A, A251C counted along it
T3 sequence (P29066 1-393 R285A): as the sequence (P29066 1-393 C251A) above, with A251C, R285A counted along it
T2 sequence (P29066 1-393 P133A): as the sequence (P29066 1-393 C251A) above, with P133A, A251C counted along it
T1 sequence (P29066 1-393 K138A): as the sequence (P29066 1-393 C251A) above, with K138A, A251C counted along it

## C=C1C(=O)[C@]23[C@H](O)[C@H]1CC[C@H]2[C@@]12CO[C@]3(O)[C@@H](O)[C@@H]1C(C)(C)CC[C@@H]2O [Cmpd-5, (1S,4aR,5S,6S,6aR,9S,11aS,11bS,14R)-1,5,6,14-tetrahydroxy−4,4-dimethyl-8-methylenedecahydro-1H-6,11b-(epoxymethano)-6a,9-methanocyclohepta[a]naphthalen-7(8H)-one]
βARR1 K138A
  Kd: 1000 ± 300 nM
βARR1 P133A
  Kd: 1000 ± 400 nM
βARR1 R285A
  Kd fold over WT, βARR1 R285A: 46.5 fold
βARR1 R285A; 25 °C
  ΔH, βARR1 R285A: -1.5 kcal/mol
βARR1 E134A
  Kd: 2200 ± 500 nM
  ΔH, βARR1 E134A: -1.2 kcal/mol
[1]
  effect on AngII-induced active βarr2 FlAsH-BRET signature: largely attenuates this active signature
βARR1 C251A
  Kd fold over WT, βARR1 C251A: 8.3 fold
βARR1 C251A; 25 °C
  Kd: 3000 ± 1000 nM
